The subject of the assay is hyperglycemic response to the oral administration of glucose. The assay is described as follows: Inhibition of the hyperglycemic response to oral glucose in the normoglycemic mouse. The following applies: mice, administration at 3 mg/kg; reference 2-(1,2,3,4-tetrahydroxybutyl)-5-(2′,3′,4′-trihydroxybutyl)]pyrazine. It counts as in vivo, Swiss albino mice. How it is done: The hypoglycemic activity of the products of formula (I) was determined with respect to the hyperglycemic response to the oral administration of glucose in the normoglycemic mouse, according to the protocol described in Example 3. Swiss albino mice weighing between 22 and 26 g are left without nourishment for 2 hours. At the end of this period, the glycemia is measured and, immediately after, a dose of glucose (2 g/kg) is administered orally. Thirty minutes later, the glycemia is once again measured. The mice which respond by a hyperglycemia greater than 170 mg/dl are selected and used to detect the hypoglycemic activity of the products according to the invention. The mice thus chosen are divided into groups of at least 10 animals. Several groups receive doses of 3 to 50 mg/kg of product in a vehicle, such as water or a mixture of methylcellulose/tween and water, once daily by gastric intubation. The treatment lasts 4 days. On the 4th day, after the final treatment, the animals receive a dose of glucose (2 g/kg) and the glycemia is measured 20 to 40 minutes later. The percentage of inhibition of the hyperglycemic response to the administration of glucose is calculated with respect to the response measured in the group treated with the vehicle.

Structures are written as SMILES.

`O=C(OC[C@@H](O)[C@@H](O)[C@H](O)c1cnc(C[C@H](O)[C@H](O)COC(=O)C2CCCCC2)cn1)C1CCCCC1` [Example 1, 4,4′-O,O-Dicyclohexyloyl-2-[(1R,2S,3R)(1,2,3,4-tetrahydroxylbutyl)]-5-[(2′S,3′R)(2′,3′,4′-trihydroxybutyl)]pyrazine]: the “relative activity with respect to the reference product” value worked out at 149%.

The values are drawn from patent US6818637B2, “Polyhydroxypyrazine derivatives, their preparation and the pharmaceutical compositions which comprise them” (Aventis Pharma SA, priority 1999, dated 2004).
